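48-hour exposure; five concentrations; linearly interpolated endpoints. TGI: total growth inhibition.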
How the values were obtained:
Assay in all cases: NCI anticancer screen, dose series, 48 h
[1] = test system: NCI-H226 lung
[2] = test system: SW-620 colon
[3] = test system: DU-145 prostate
[4] = test system: HOP-62 NSCLC
[5] = test system: MALME-3M melanoma
[6] = test system: HS 578T breast
[7] = test system: SN12C renal
[8] = test system: RPMI-8226 leukemia
[9] = test system: UACC-62 melanoma
[10] = test system: OVCAR-3 ovarian
[11] = test system: NCI-H522 lung
[12] = test system: UO-31 renal
[13] = test system: SF-295 CNS
[14] = test system: SF-268 CNS
[15] = test system: A498 renal
[16] = test system: SK-MEL-2 melanoma
[17] = test system: HCT-15 colon
[18] = test system: CAKI-1 renal
[19] = test system: A549 NSCLC
[20] = test system: HOP-92 NSCLC
[21] = test system: IGROV1 ovarian
[22] = test system: OVCAR-4 ovarian
[23] = test system: K-562 leukemia
[24] = test system: SNB-19 CNS
[25] = test system: HCT-116 colon
[26] = test system: TK-10 renal
[27] = test system: M14 melanoma
[28] = test system: T-47D breast
[29] = test system: RXF 393 renal
[30] = test system: COLO 205 colon
[31] = test system: MDA-MB-435
[32] = test system: SK-MEL-28 melanoma
[33] = test system: PC-3 prostate
[34] = test system: SK-MEL-5 melanoma
[35] = test system: EKVX NSCLC
[36] = test system: HT29 colon
[37] = test system: KM12 colon
[38] = test system: NCI/ADR-RES ovarian
[39] = test system: BT-549 breast
[40] = test system: MOLT-4 leukemia
[41] = test system: MCF7 breast
[42] = test system: 786-0 renal
[43] = test system: OVCAR-5 ovarian
[44] = test system: U251 CNS
[45] = test system: LOX IMVI melanoma
[46] = test system: ACHN renal
[47] = test system: SR leukemia
[48] = test system: HL-60(TB) leukemia
[49] = test system: UACC-257 melanoma
[50] = test system: SK-OV-3 ovarian
[51] = test system: OVCAR-8 ovarian
[52] = test system: MDA-N
[53] = test system: NCI-H23 lung
[54] = test system: MDA-MB-231 breast
[55] = test system: CCRF-CEM leukemia
[56] = test system: NCI-H460 lung
[57] = test system: SF-539 CNS
[58] = test system: SNB-75 CNS

With `CCC1c2[nH]c3ccccc3c2C[C@H]2C(=O)NC(CCC(=O)OC(C)(C)C)C(=O)N12` (stereo not given in full) the TGI [1] was over 100 µM, the TGI [2] was over 100 µM and the TGI [3] was over 100 µM. The TGI [4] was over 100 µM, the TGI [5] was over 100 µM and the TGI [6] was over 100 µM. The TGI [7] was over 100 µM, the TGI [8] was 97.9 µM and the TGI [9] was over 100 µM. It also gave a TGI [10] of over 100 µM, a TGI [11] of over 100 µM and a TGI [12] of over 100 µM. For the same molecule, the TGI [13] was over 100 µM, the TGI [14] was over 100 µM and the TGI [15] was over 100 µM. It also gave a TGI [16] of over 100 µM, a TGI [17] of over 100 µM and a TGI [18] of over 100 µM. The TGI [19] was over 100 µM, the TGI [20] was 94.9 µM and the TGI [21] was over 100 µM. It also gave a TGI [22] of over 100 µM, a TGI [23] of over 100 µM and a TGI [24] of over 100 µM. The TGI [25] was over 100 µM, the TGI [26] was over 100 µM and the TGI [27] was over 100 µM. It also gave a TGI [28] of over 100 µM, a TGI [29] of over 100 µM and a TGI [30] of 72.3 µM. It also gave a TGI [31] of over 100 µM, a TGI [32] of over 100 µM and a TGI [33] of over 100 µM. It also gave a TGI [34] of over 100 µM, a TGI [35] of over 100 µM and a TGI [36] of over 100 µM. For the same molecule, the TGI [37] was over 100 µM, the TGI [38] was over 100 µM and the TGI [39] was over 100 µM. The TGI [40] was over 100 µM, the TGI [41] was over 100 µM and the TGI [42] was over 100 µM. It also gave a TGI [43] of over 100 µM, a TGI [44] of over 100 µM and a TGI [45] of over 100 µM. It also gave a TGI [46] of over 100 µM, a TGI [47] of over 100 µM and a TGI [48] of over 100 µM. For the same molecule, the TGI [49] was over 100 µM, the TGI [50] was over 100 µM and the TGI [51] was over 100 µM. The TGI [52] was over 100 µM, the TGI [53] was over 100 µM and the TGI [54] was over 100 µM.
Work on `CC(C(=O)N1c2ccccc2Sc2ccccc21)N1c2ccccc2Sc2ccccc21` (stereo not given) yielded a TGI [55] of over 100 µM, a TGI [1] of over 100 µM and a TGI [2] of over 100 µM. The TGI [3] was over 100 µM, the TGI [4] was over 100 µM and the TGI [5] was over 100 µM. For the same molecule, the TGI [6] was over 100 µM, the TGI [7] was over 100 µM and the TGI [8] was over 100 µM. It also gave a TGI [56] of over 100 µM, a TGI [57] of over 100 µM and a TGI [9] of over 100 µM. For the same molecule, the TGI [10] was over 100 µM, the TGI [12] was over 100 µM and the TGI [13] was over 100 µM. The TGI [14] was over 100 µM, the TGI [15] was over 100 µM and the TGI [16] was over 100 µM. It also gave a TGI [17] of over 100 µM, a TGI [19] of over 100 µM and a TGI [20] of over 100 µM. The TGI [21] was over 100 µM, the TGI [22] was over 100 µM and the TGI [23] was over 100 µM. For the same molecule, the TGI [24] was over 100 µM, the TGI [25] was over 100 µM and the TGI [26] was over 100 µM. It also gave a TGI [27] of over 100 µM, a TGI [28] of over 100 µM and a TGI [29] of over 100 µM. It also gave a TGI [30] of over 100 µM, a TGI [31] of over 100 µM and a TGI [32] of over 100 µM. It also gave a TGI [33] of over 100 µM, a TGI [34] of over 100 µM and a TGI [35] of over 100 µM. The TGI [36] was over 100 µM, the TGI [37] was over 100 µM and the TGI [38] was over 100 µM. For the same molecule, the TGI [39] was over 100 µM, the TGI [40] was over 100 µM and the TGI [41] was over 100 µM. It also gave a TGI [42] of over 100 µM, a TGI [43] of over 100 µM and a TGI [44] of over 100 µM. For the same molecule, the TGI [45] was over 100 µM, the TGI [46] was over 100 µM and the TGI [47] was over 100 µM. For the same molecule, the TGI [58] was over 100 µM, the TGI [48] was over 100 µM and the TGI [49] was over 100 µM. For the same molecule, the TGI [50] was over 100 µM, the TGI [51] was over 100 µM and the TGI [52] was over 100 µM. It also gave a TGI [53] of over 100 µM and a TGI [54] of over 100 µM.

From PubChem BioAssay (NCI)
